# “Also recorded” adds a separate entry of the source.
# Assays:
# patients with PH-HFpEF = assay: Adverse events, tolerability and final dose, I.V. to oral levosimendan transition study; type: in vivo, human; conditions: for SAEs attributed/related to study drug: 6-8 week transition
# Source text: The following considerations justified amending the TNX-LVO-05 study protocol: • 1. The amended TNX-LVO-05 protocol included the same patients enrolled in the original study. This was not a new study of the patients currently enrolled. This was open label, with no blinding of patients or physicians, and no control group. • 2. The scope and purpose of the study was unchanged, with the exception that it offered the further extension of treatment allowed by the transition to oral therapy (See item #4). • 3. The amendment clearly delineated a stepwise and thoughtful titration of patients from their intravenous to oral levosimendan to ensure the safe and effective transition of their levosimendan regimen. • a. Patients were started on 1 mg daily, representing a dose generally less than half their total weekly weight-based dose regimen. • b. Patients were titrated based on tolerance to the daily levosimendan paying attention to their symptoms of PH-HFpEF, and special attention to specific adverse events of interest, heart rate and blood pressure. A daily diary captured patient vitals and symptoms to aid their physician in titrating patients at two-week intervals. • c. Patient response also was evaluated by clinical measures to provide the physician with additional information on the patient's response. • d. While most patients were expected to receive 2-3 mg daily at the conclusion of the transition study, the dose escalation strategy was included to allow all patients to realize the same benefit as they did from the I.V. formulation. • e. To document the sustained efficacy of the oral formulation in these patients, patients had to undergo a six-minute walk test and patient questionnaire prior to and at the end of the transition study. • 4. The transition to oral levosimendan allowed for extension of the study from its initial two years to an additional three years. This offers these PH-HFpEF patients, with no other treatments available, to continue on a drug that they have responded to. • 5. The amendment required patients to sign a revised informed consent to ensure patients are completely informed concerning the transition amendment. Patients that preferred to continue with their weekly 24-hour I.V. regimen were allowed to continue through the initial two-year period of the study and then will be withdrawn.
# Methods: Patients with PH-HFpEF who were in the open label extension study of the HELP Trial for more than 18 months volunteered to enroll in this transition protocol. Patients were initiated with 1 mg/day of oral levosimendan 5-7 days after the last IV levosimendan infusion. The oral dose was increased every 2 weeks by 1 mg/day to a maximum of 4 mg/day over an 8 week period. The highest daily dose was determined by the investigator based on clinical assessments of symptoms and side effects. The primary safety endpoints were change in resting heart rate and blood pressure from baseline to final study visit and all other adverse events. Secondary efficacy endpoints included change in six-minute walk distance (6MWD), serum brain natriuretic peptide (BNP) or NT-proBNP levels, and quality of life as assessed by Kansas City Cardiomyopathy Questionnaire clinical summary score (KCCQ-CS) and overall summary score (KCCQ-OS) from baseline to final study visit. All comparisons were the baseline and at week 6-8 measurements at the highest daily dose of levosimendan. […]
# [1] = in vivo; cited from earlier work
compound,measurement,setting,value
C[C@@H]1CC(=O)NN=C1c1ccc(NN=C(C#N)C#N)cc1 [levosimendan],tolerability of transition to oral levosimendan,"patients with PH-HFpEF; 6-8-week period, after >18 months of IV levosimendan",well tolerated without safety concerns
same,other adverse events,"patients with PH-HFpEF; 18 patients, oral levosimendan",No other adverse events
same,serious adverse event not related to study drug,"patients with PH-HFpEF; 18 patients, oral levosimendan, listed as study drug",One patient experienced a serious adverse event (SAE) unrelated to study drug; also recorded: One patient had a serious adverse event not related to the study drug
same,SAEs attributed/related to study drug,patients with PH-HFpEF; oral levosimendan,no SAEs related
same,SAEs attributed/related to study drug,"patients with PH-HFpEF; oral levosimendan, listed as study drug",no SAEs were reported
same,parent half-life,[1],approximately 1 hour

# Source: patent US20250064799A1, “ORAL FORMULATIONS OF LEVOSIMENDAN FOR TREATING PULMONARY HYPERTENSION WITH HEART FAILURE WITH PRESERVED EJECTION FRACTION” (Tenax Therapeutics, Inc., priority 2021, published 2025)
